Experimental data: a melting point compilation (Tetko et al.)

Row | Compound | melting point [°C]
1 | CN(C)c1ccc(C=CC(=O)O)cc1 | 225 to 228
2 | CCCN(CCC)c1c([N+](=O)[O-])cc(S(C)(=O)=O)cc1[N+](=O)[O-] | 150
3 | O=C(O)C1c2ccccc2-c2ccccc21 | 229
4 | CC(=O)O[C@@H]1CC[C@@]2(C)C(CC[C@@H]3[C@@H]2CC[C@@]2(C)[C@H]3CC[C@]2(O)/C=C/c2ccccc2)C1 (stereo not given in full) | 160 to 164
5 | Oc1c(Cl)cc(F)cc1Cl | 49 to 52
6 | O=S1(=O)Cc2cccc3cccc(c23)C1 | 238 to 240
7 | CC(C)NC(C)C | -61
8 | Brc1ccc(-c2ccccn2)s1 | 87 to 89
9 | ClC1(Cl)CCCCC1 | -47
10 | NC(C(=O)O)c1ccc(O)cc1 (stereo not given) | 240
11 | Nc1ccc(CCC(=O)O)cc1 | 134
12 | c1ccc(-c2cccs2)nc1 | 63
13 | O=[N+]([O-])c1c(O)c(Cl)cc(Cl)c1Cl | 92.5
14 | NNc1cc(Cl)cc(Cl)c1 | 115
15 | CCOC(=O)c1cc2cc(C=O)c(N)cc2[nH]c1=O | 154 to 157
16 | CCOC(=O)c1sc2nc(C)cc(C)c2c1N | 157 to 158
17 | NC(=S)c1ccc(F)cc1 | 150

Row | Compound | melting point [°C]
18 | CCCCCCCCCCCCCCCCCCCCCCCCCCCCCC[Si](Cl)(Cl)Cl | 60 to 80
19 | CC(=O)C(=NNc1cccc([N+](=O)[O-])c1)C(C)=O | 184
20 | CC(=O)Oc1c(-c2ccccc2)[nH]c2cc([N+](=O)[O-])c(/C=C/c3ccccc3)cc12 | 224
21 | Nc1ccc(F)cc1O | 138
22 | COc1cccc2c(=O)c3c(n(C)c12)OC(C(C)C)C3 (stereo not given) | 119
23 | O=S(=O)(O)c1cccnc1 | 300
24 | COc1ccc(CNC(=O)c2cc([N+](=O)[O-])cc([N+](=O)[O-])c2)cc1 | 151
25 | O=S(=O)(Cl)c1ccc(F)cc1Cl | 30
26 | COc1ccccc1CCC(=O)O | 87
27 | CC(C)(C)OC(=O)N[C@@H](Cc1ccccc1)C(=O)O | 85 to 88
28 | CC(C)(C)CCO | -60
29 | Cc1ccc(NN=C2SC(=N)NC2=O)cc1 | 265
30 | CC1CCC(C(C)C)C(OC(=O)C(Cc2ccccc2)Cc2ccccc2)C1 (stereo not given) | 43
31 | CC(C)(C)NC(N)=O | 178 to 182
32 | CCCCCCCCCCC(=O)OCC | -15
33 | NN=C(/C(=N/N)c1ccc2ccccc2c1)c1ccccc1 | 163
34 | OCC(F)(F)C(F)(F)C(F)(F)C(F)(F)C(F)(F)C(F)(F)C(F)(F)C(F)(F)C(F)(F)F | 87 to 91

The next lines start with the values.

Row | melting point [°C] | Compound
35 | 113 to 115 | CCN(CC)C(=O)c1[nH]c(C)c(C)c1C
36 | 163 to 167 | NC(=O)[C@@H]1CC=CC[C@H]1N (relative stereo)
37 | 65 to 67 | O=C1C=C(/C=C/c2ccccc2)CCC1
38 | 144 | ClC(=C(Cl)c1ccccc1)c1ccccc1
39 | 149 to 151 | O=C(O)CCC(=O)c1ccc2c(c1)OCCCO2
40 | 58 | CC(=O)CCc1ccc(CCC(C)=O)c([N+](=O)[O-])c1
41 | 86 to 88 | CSc1ccc(C(F)(F)F)cc1NN
42 | 183 to 185 | O=C1CC2C(CC(OC(=O)c3ccccc3)C2COC(c2ccccc2)(c2ccccc2)c2ccccc2)O1 (single isomer, unassigned; (-))
43 | 209 | O=C1NC2=Cc3ccccc3C2(O)Cc2ccccc21 (stereo not given)
44 | 80 | N#CC1CN(Cc2ccccc2)CN(Cc2ccccc2)C1
45 | 143 | CC12CCCCC1CCC1C2CCC2(C)C1CCC21OCCO1 (stereo not given)
46 | 77 | COc1cccc(OC)c1N
47 | 250 | Cc1c(CCO)c(=O)n2c([nH]c3ccccc32)c1C#N
48 | 60.5 | N#CC=C(Cl)C#N
49 | 124 to 125 | Cc1csc(C(=O)O)c1
50 | 126 to 127 | CCc1c(C)nc(NC(=O)NS(=O)(=O)c2cccs2)nc1Cl
